A short description of series [1]: Sensory nerve conduction velocity (SNCV) in cisplatin-induced neuropathy in rats. The settings on record: for SNCV at the end of the experiment, mean: tail nerve; for tail nerve conduction velocity impairment due to chronic cisplatin treatment: co-administration of compound 4i 40 mg/kg PO daily. In kind it is in vivo. As to the method:
In this experiment, female Wistar Hannover rats were dosed with neuropathy inducing doses of cisplatin (2 mg/kg IP; twice a week for 4 weeks) with and without compound 4i (40 mg/kg PO daily). The rats were monitored for changes in sensory nerve conduction velocity (SNCV) in the caudal nerve at baseline (pre-cisplatin dosing) and after treatment. Additionally, dorsal root ganglion and sciatic nerve specimens with morphometric analysis on dorsal root ganglion neurons (somatic, nuclear and nucleolar size) were assessed histopathologically. At the beginning and end of the treatment period, each animal underwent the determination of SNCV in the tail as previously described in Cavaletti et al., “Protective Effects of glutathione on cisplatin neurotoxicity in rats,” Int. J. Radiation Oncology, 29, 771-776 (1994) and […] et al., “Low-Dose Glutathione administration in the prevention of cisplatin-induced peripheral neuropathy in rats,” Neuro toxicology, 15, 701-704 (1994). The antidromic SNCV in the tail nerve was assessed by placing recording ring electrodes distally in the tail, while the stimulating ring electrodes were placed 5 cm and 10 cm proximally with respect to the recording point. The latencies of the potentials recorded at the 2 sites after nerve stimulation were determined (peak-to-peak) and nerve conduction velocity was calculated accordingly. The differences in nerve conduction velocity, and in morphometric data obtained in dorsal root ganglia neurons during the experiment were statistically evaluated using the analysis of variance (ANOVA) and the Tukey-Kramer post-test (significance level set at p<0.05).

Another series has as its system DRG neurons. As to the kind of experiment: DRG neuron morphometry in cisplatin-induced neuropathy in rats. It counts as in vivo. As to the method: In this experiment, female Wistar Hannover rats were dosed with neuropathy inducing doses of cisplatin (2 mg/kg IP; twice a week for 4 weeks) with and without compound 4i (40 mg/kg PO daily). The rats were monitored for changes in sensory nerve conduction velocity (SNCV) in the caudal nerve at baseline (pre-cisplatin dosing) and after treatment. Additionally, dorsal root ganglion and sciatic nerve specimens with morphometric analysis on dorsal root ganglion neurons (somatic, nuclear and nucleolar size) were assessed histopathologically. Left L5 dorsal-root ganglia (DRG) of rats from each group were obtained from the sacrificed animals and processed according to previously reported protocols [Cavaletti et al.: […] et al]], resin embedded, and used for light and electron microscope observations and morphometry. On 1 μm thick semithin sections, morphometric determinations of the cross sectional area of the somata, nuclei and nucleoli of DRG neurons were performed using an image analysts software (Image J, NIH). The differences in nerve conduction velocity, and in morphometric data obtained in dorsal root ganglia neurons during the experiment were statistically evaluated using the analysis of variance (ANOVA) and the Tukey-Kramer post-test (significance level set at p<0.05).

Series [2] addresses purified recombinant human PARP (Homo sapiens (Human), UniProt P09874). As to the kind of experiment: PARP enzyme assay (IC50). It counts as biochemical. The settings on record: approximate IC50 values. Here is the method:
A convenient method to determine IC50 of a PARP inhibitor compound is a PARP assay using purified recombinant human PARP from Trevigan (Gaithersburg, MD), as follows: The PARP enzyme assay is set up on ice in a volume of 100 microliters consisting of 100 mM Tris-HCl (pH 8.0), 1 mM MgCl2, 28 mM KCl, 28 mM NaCl, 0.1 mg/ml of DNase I activated herring sperm DNA (Sigma, Mo.), 3.0 micromolar [3H]nicotinamide adenine dinucleotide (470 mci/mmole), 7 micrograms/ml PARP enzyme, and various concentrations of the compounds to be tested. The reaction is initiated by incubating the mixture at 25° C. After 15 minutes of incubation, the reaction is terminated by adding 500 microliters of ice cold 20% (w/v) trichloroacetic acid. The precipitate formed is transferred onto a glass fiber filter (Packard Unifilter-GF/B) and washed three times with ethanol. After the filter is dried, the radioactivity is determined by scintillation counting.

In series [3] the test system is Murine melanoma B16 cells. As to the kind of experiment: Survival of mice bearing intracranial B16 melanoma, compound + temozolomide. In kind it is in vivo. Conditions: for MST: B16 melanoma in brain; for ILS vs TMZ: increase in lifespan. Here is the method: The intracranial transplantation procedure was performed as described in Tentori L. et al., “Effects of single or split exposure of leukemic cells to temozolomide, combined with poly(ADP-ribose) polymerase inhibitors on cell growth, chromosomal aberrations and base excision repair components,” Cancer Chemother Pharmacol, 47, 361-9 (2001). Murine melanoma B16 cells (10^4) were injected intracranially (ic) into male B6D2F1 (C578L/6×DBA/2) mice. Histological evaluation of tumor growth in the brain was performed 1-5 days after tumor challenge, in order to determine the timing of treatment.
Compound 4i was dissolved in 70 mM PBS without potassium and administered po 1 h before temozolomide (TMZ). TMZ was dissolved in dimethyl-sulfoxide (40 mg/ml), diluted in saline (5 mg/ml) and administered ip at a dose of 100 mg/Kg for five days. Mice were treated with compound 4i by oral gavages once a day for five days, at doses of 10 or 40 mg/kg/day. Median survival times (MST) were determined and the percentage of increase in lifespan (ILS) was calculated as: {[MST (days) of treated mice/MST (days) of control mice]−1}×100. Efficacy of treatments was evaluated by comparing survival curves between treated and control groups.

For a further series, the system named is B16 melanoma. As to the kind of experiment: Subcutaneous B16 melanoma growth in mice, compound + temozolomide. In kind it is in vivo. Conditions: Compound 4i 40 mg/kg po + TMZ 100 mg/kg ip once a day for five days; s.c. tumor; day 9 to day 23. Here is the method: The efficacy of TMZ±Compound 4i treatment was also evaluated on melanoma growing subcutaneously (s.c.) in mice. For this purpose B16 cells (2.5×10^5) were inoculated s.c. in the flank of the animal. Tumors were measured with calipers and volume calculated according to the formula: [(width)^2×length]/2. Drug treatment started 6 days after challenge, when the volume of tumor nodules reached 100-150 mm^3. Compound 4i (40 mg/kg po) was administered at 20 min before temozolomide (100 mg/kg ip) once a day for five days. Melanoma growth was monitored by measuring tumor nodules every 3 days for 3 weeks.

The mark [4] stands for this setting: Tukey's multiple comparison test.

The structures appear in SMILES notation.

purified recombinant human PARP, sequence (P09874 whole entry): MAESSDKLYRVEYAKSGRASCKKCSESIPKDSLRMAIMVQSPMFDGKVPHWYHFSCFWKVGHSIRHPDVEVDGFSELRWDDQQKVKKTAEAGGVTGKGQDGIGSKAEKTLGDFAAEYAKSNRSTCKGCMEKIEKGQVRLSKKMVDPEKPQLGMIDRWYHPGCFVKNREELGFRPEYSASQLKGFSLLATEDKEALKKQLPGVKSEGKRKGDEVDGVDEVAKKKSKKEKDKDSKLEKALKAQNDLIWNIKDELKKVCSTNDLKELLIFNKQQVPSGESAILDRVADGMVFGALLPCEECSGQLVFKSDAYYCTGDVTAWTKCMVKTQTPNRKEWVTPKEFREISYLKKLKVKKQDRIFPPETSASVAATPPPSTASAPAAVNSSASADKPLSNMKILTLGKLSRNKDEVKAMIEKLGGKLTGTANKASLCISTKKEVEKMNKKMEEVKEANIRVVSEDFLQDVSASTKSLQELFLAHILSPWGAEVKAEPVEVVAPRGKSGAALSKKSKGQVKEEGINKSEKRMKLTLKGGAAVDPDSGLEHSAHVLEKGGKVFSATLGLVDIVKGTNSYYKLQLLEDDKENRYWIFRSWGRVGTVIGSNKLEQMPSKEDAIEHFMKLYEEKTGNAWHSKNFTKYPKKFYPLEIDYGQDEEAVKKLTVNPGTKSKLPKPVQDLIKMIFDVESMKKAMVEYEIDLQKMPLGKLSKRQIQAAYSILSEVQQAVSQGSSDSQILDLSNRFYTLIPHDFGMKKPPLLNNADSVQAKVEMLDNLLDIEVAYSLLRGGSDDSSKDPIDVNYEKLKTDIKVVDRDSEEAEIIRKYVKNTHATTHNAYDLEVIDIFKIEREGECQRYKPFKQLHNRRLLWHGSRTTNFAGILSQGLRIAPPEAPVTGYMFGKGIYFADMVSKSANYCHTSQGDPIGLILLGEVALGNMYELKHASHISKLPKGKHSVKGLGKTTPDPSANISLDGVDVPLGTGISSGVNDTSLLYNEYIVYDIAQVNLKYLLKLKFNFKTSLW

With `[NH2][Pt]([NH2])([Cl])[Cl]` [CDDP, Cisplatin, reference compound], the “SNCV at the end of the experiment, mean” value in series [1] (CDDP alone 2 mg/kg IP twice a week for 4 weeks) came out at 28.62 m/sec. Also, in the series with DRG neurons (CDDP alone), the “Morphometry on DRG, Nu (nucleus), mean” value is reported as 114.3 μm^2; the “Morphometry on DRG, Nucl (nucleolus), mean” value is 7.651 μm^2; the “Morphometry on DRG, Soma, mean” value came out at 683.4 μm^2.

A word on the IC50: it is the concentration that inhibits the measured activity by half. Turning to `CC(C)N1CCN(Cc2ccc3c(c2)-c2n[nH]c(=O)c4cccc(c24)O3)CC1` [Compound 4a, 10-(4-Isopropyl-piperazin-1-ylmethyl)2H-7-oxa-1,2-diaza-benzo[de]anthracen-3-one], in series [2], the IC50 turned out to be 30 nM.

Turning to `COCCN1CCN(Cc2ccc3c(c2)-c2n[nH]c(=O)c4cccc(c24)O3)CC1` [Compound 4b, 10-[4-(2-Methoxy-ethyl)-piperazin-1-ylmethyl]-2H-7-oxa-1,2-diaza-benzo[de]anthracen-3-one], the IC50 in series [2] was found to be 20 nM.

Consider `O=c1[nH]nc2c3c(cccc13)Oc1ccc(CN3CCN(c4ncccn4)CC3)cc1-2` [Compound 4c, 10-(4-Pyrimidin-2-yl-piperazin-1-ylmethyl)-2H-7-oxa-1,2-diaza-benzo[de]anthracen-3-one], for which the IC50 in series [2] was determined as 30 nM.

For the molecule `O=C1CN(Cc2ccc3c(c2)-c2n[nH]c(=O)c4cccc(c24)O3)CCN1` [Compound 4d, 10-(3-Oxo-piperazin-1-ylmethyl)-2H-7-oxa-1,2-diaza-benzo[de]anthracen-3-one], in series [2], the IC50 worked out at 20 nM.

As for `CCN(CC)CCN(C)Cc1ccc2c(c1)-c1n[nH]c(=O)c3cccc(c13)O2` [Compound 4h, 10-{[(2-Diethylamino-ethyl)-methyl-amino]-methyl}-2H-7-oxa-1,2-diaza-benzo[de]anthracen-3-one], in series [2], the IC50 is 100 nM.

Consider `O=c1[nH]nc2c3c(cccc13)Oc1ccc(CN3CCC(O)CC3)cc1-2` [Compound 4i], for which the IC50 in series [2] worked out at 40 nM. Further, the MST in series [3] (Compound 4i 10 mg/kg po + TMZ 100 mg/kg ip x 5 days) amounted to 17 days. Also, the “ILS vs TMZ” value in series [3] (Compound 4i 10 mg/kg po + TMZ x 5) is listed as 21%. Further, in series [3] (Compound 4i 40 mg/kg po + TMZ 100 mg/kg ip x 5 days), the MST worked out at 21 days. Also, the “ILS vs TMZ” value in series [3] (Compound 4i 40 mg/kg po + TMZ x 5) is 50%. In addition, the “mean survival time vs TMZ as single agent” value in series [3] (compound 4i + TMZ combination, mice bearing B16 melanoma) is reported as “significantly higher”. For the same molecule, the “growth of B16 melanoma vs TMZ alone” value in the series on B16 melanoma is on record as “significantly reduced”. Further, the “SNCV at the end of the experiment, mean” value in series [1] (CDDP 2 mg/kg IP twice a week for 4 weeks + 4i 40 mg/kg PO daily) is reported as 34.08 m/sec. Besides, in series [1] (setting [4]), the “SNCV Mean Diff., CDDP vs CDDP + 4i” value is recorded as −5.460. For the same molecule, the “tail nerve conduction velocity impairment due to chronic cisplatin treatment” value in series [1] was “attenuate the deficits in nerve conduction velocity”. The “tail nerve conduction velocity impairment due to chronic cisplatin treatment” value in series [1] (listed as compound 4i) was “statistically significant reduction”. Further, in the series with DRG neurons (CDDP + 4i), the “Morphometry on DRG, Nu (nucleus), mean” value was determined as 121.8 μm^2; the “Morphometry on DRG, Nucl (nucleolus), mean” value was 8.069 μm^2; the “Morphometry on DRG, Soma, mean” value is 822.1 μm^2. In addition, in the series on DRG neurons (setting [4]), the “Nucleolus Mean Diff., CDDP vs CDDP + 4i” value is recorded as −0.4177 and the “Soma Mean Diff., CDDP vs CDDP + 4i” value was −138.7. Moreover, the “effect on DRG neuron morphometry” value in the series with DRG neurons (cisplatin-treated rats with compound 4i) is recorded as “significant effect only on the somatic size of DRG neurons”.

For the molecule `CCN(CCO)Cc1ccc2c(c1)-c1n[nH]c(=O)c3cccc(c13)O2` [Compound 4j, 10-{[Ethyl-(2-hydroxy-ethyl)-amino]-methyl}-2H-7-oxa-1,2-diaza-benzo[de]anthracen-3-one], the IC50 in series [2] worked out at 100 nM.

`CC(C)N(Cc1ccc2c(c1)-c1n[nH]c(=O)c3cccc(c13)O2)C(C)C` [Compound 4k, 10-[(Diisopropylamino)-methyl]-2H-7-oxa-1,2-diaza-benzo[de]anthracen-3-one]: the IC50 in series [2] amounted to 300 nM.

With `O=c1[nH]nc2c3c(cccc13)Oc1ccc(CN3CCC(O)C3)cc1-2` (stereo not shown) [Compound 4l, 10-(3-Hydroxy-pyrrolidin-1-ylmethyl)-2H-7-oxa-1,2-diaza-benzo[de]anthracen-3-one], in series [2], the IC50 came out at 100 nM.

Turning to `O=c1[nH]nc2c3c(cccc13)Oc1ccc(CN3CCC(CCO)CC3)cc1-2` [Compound 4m, 10-[4-(2-Hydroxy-ethyl)-piperidin-1-ylmethyl]-2H-7-oxa-1,2-diaza-benzo[de]anthracen-3-one], the IC50 in series [2] turned out to be 100 nM.

Regarding `O=c1[nH]nc2c3c(cccc13)Oc1ccc(CN3CCC4(CC3)OCCO4)cc1-2` [Compound 4n, 10-(1,4-Dioxa-8-aza-spiro[4.5]dec-8-ylmethyl)-2H-7-oxa-1,2-diaza-benzo[de]anthracen-3-one], the IC50 in series [2] stood at 100 nM.

`O=c1[nH]nc2c3c(cccc13)Oc1ccc(CN3CCCC(O)C3)cc1-2` (stereo not shown) [Compound 4o, 10-(3-Hydroxy-piperidin-1-ylmethyl)-2H-7-oxa-1,2-diaza-benzo[de]anthracen-3-one]: the IC50 in series [2] came to 50 nM.

Take `O=c1[nH]nc2c3c(cccc13)Oc1ccc(CN3CC(O)C3)cc1-2` [Compound 4p, 10-(3-Hydroxy-azetidin-1-ylmethyl)-2H-7-oxa-1,2-diaza-benzo[de]anthracen-3-one]: in series [2], the IC50 turned out to be 30 nM.

Take `O=c1[nH]nc2c3c(cccc13)Oc1ccc(CNCCN3CCOCC3)cc1-2` [Compound 4q, 10-[(2-Morpholin-4-yl-ethylamino)-methyl]-2H-7-oxa-1,2-diaza-benzo[de]anthracen-3-one]: in series [2], the IC50 is 50 nM.

Regarding `O=c1[nH]nc2c3c(cccc13)Oc1ccc(CN[C@H]3CC[C@H](O)CC3)cc1-2` [Compound 4r, 10-[(4-Hydroxy-cyclohexylamino)-methyl]-2H-7-oxa-1,2-diaza-benzo[de]anthracen-3-one], the half-maximal inhibitory concentration (IC50) in series [2] amounted to 30 nM.

Take `O=C1CCN(Cc2ccc3c(c2)-c2n[nH]c(=O)c4cccc(c24)O3)CC1` [Compound 4s, 10-(4-Oxo-piperidin-1-ylmethyl)-2H-7-oxa-1,2-diaza-benzo[de]anthracen-3-one]: the IC50 in series [2] is 120 nM.

As to `Cn1nnc2c(C(N)=O)ncn2c1=O` [TMZ, temozolomide, reference compound], the MST in series [3] (TMZ alone 100 mg/kg ip x 5) was 14 days.
